These results are taken from patent US6337397B1, “Pyrimidine derivatives and their salts, useful for making benzoxazepine derivatives” (Suntory Limited, priority 1995, dated 2002).

In one data set the test system is male Wistar rats. Put plainly: Anticonflict action, NaCl-Lick conflict method. The class given is in vivo. The following applies: Rattus norvegicus, po, 1 hour before the test; number of licks in 5 minutes of 2% saline; rats deprived of water for 48 hours; read-out: Minimum effective dosage. How it is done: The anticonflict action of the compounds of the general formulae (I), (II), and (III) was evaluated in accordance with the NaCl-Lick conflict method of Tanga et al. (Pharmacol., Biochem., Behav., vol. 32, pp. 773-776, 1989). That is, six-week old male Wistar rats in groups of six to 10 were deprived of water for 48 hours and placed in an experimental apparatus placed in a soundproof box (apparatus made of acrylic resin, 20×20×30 cm, provided with a drinking outlet having a diameter of 1 cm at height of 8 cm from the floor, designed to be able to measure the number of drops per unit hour by a drinkometer), and the anticonflict action of the medicament was evaluated using as an indicator the number of drops (number of licks) in 5 minutes from the start of drinking of 2% saline. The tested medicament was orally administered in an amount of 0.2 ml/100 g body weight 1 hour before the start of the test.

Data set [1] addresses T1, serotonin 5-HT1A receptor (Rattus norvegicus, UniProt P19327).
T1 construct: the hippocampuses extracted from male Wistar rats were homogenized; from tissue; host or cells: rat hippocampus membrane homogenate
T1 sequence (P19327 1-422): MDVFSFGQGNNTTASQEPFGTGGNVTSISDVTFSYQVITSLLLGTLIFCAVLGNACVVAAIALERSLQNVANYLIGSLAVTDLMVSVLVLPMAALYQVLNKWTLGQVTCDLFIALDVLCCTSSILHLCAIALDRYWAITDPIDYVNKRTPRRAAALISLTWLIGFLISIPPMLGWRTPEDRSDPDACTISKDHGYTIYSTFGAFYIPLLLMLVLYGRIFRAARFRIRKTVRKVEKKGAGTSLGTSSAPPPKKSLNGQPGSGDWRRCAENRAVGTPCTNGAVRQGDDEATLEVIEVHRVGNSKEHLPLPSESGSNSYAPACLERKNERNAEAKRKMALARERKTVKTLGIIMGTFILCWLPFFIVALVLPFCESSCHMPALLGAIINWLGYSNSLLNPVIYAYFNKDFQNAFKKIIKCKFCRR
Kind of data set: Affinity with serotonin receptor, [3H]8-OH-DPAT binding. Also noted: species or system male Wistar rats. The following applies: for D2/5-HT1A: ratio of IC50 (D2) to IC50 (5-HT1A). As to the method: The affinity of the compounds of the general formulas (I), (II), and (III) with a serotonin receptor was evaluated in accordance with the method of S. T. Peuroutka et al. (J. Neurochem., vol. 47, pp. 529-540, 1986). That is, the hippocampuses extracted from male Wistar rats were homogenized while adding 50 mM tris-phosphate buffer (pH 7.7). The homogenate was centrifuged at […] and 40000×g for 10 minutes. The same buffer was added to the obtained precipitate, then this was homogenized again and was similarly centrifuged to obtain the precipitate. This homogenization-centrifugation operation was repeated two times to obtain a final precipitate to which was then added 10 uM of N-methyl-N-2-propynylbenzylamine (Pargyline), 4 mM of calcium chloride, and 0.1% ascorbic acid contained in a 50 mM tris-phosphate buffer (ph 7.7). This was then homogenized to prepare the serotonin receptor.
For the binding experiment, 0.4 nM of [3H]2-di-n-propylamino-8-hydroxy-1,2,3,4-tetrahydronapthalene (8-DPAT; 8-hydroxy-N,N-dipropyl-2-aminotetetrilin) was used, various concentrations of test samples were added to a system of 0.25 mg/ml of protein or a total of 0.25 ml, and these were incubated at 25° C. for 30 minutes. A Whatman GF/C filter was used to filter each of the reaction solutions, then the filter was washed by 20 mM tris-phosphate buffer (pH 7.7). The serotonin receptor was trapped by the filter and the radio activity of the 8-OH-DAPT bonded to it was measured to find the degree of binding. The 50% inhibiting concentration of binding affinity (IC50) was calculated from the degrees of binding in the various sample concentrations. […] The IC50 values of typical compounds are shown together with the IC50 values with respect to the dopamine D2 receptor.

The next data set has as its target T2, dopamine D2 receptor (Rattus norvegicus, UniProt P61169).
T2 construct: the corpus striatums excised from male Wistar rats were homogenized; from tissue; host or cells: rat corpus striatum membrane homogenate
Put plainly: Affinity with dopamine D2 receptor, [3H]Raclopride binding. Set-up: species or system male Wistar rats. The following applies: 1.0 nM [3H]Raclopride, rat corpus striatum preparation, 25° C., 60 minutes. As to the method:
The affinity of the compounds of the general formulas (I), (II), and (III) with a dopamine D2 receptor was evaluated in accordance with the method of Kakohler et al. (Biochem. Pharmacol., vol. 34, pp. 2251-2259, 1985). That is, the corpus striatums excised from male Wistar rats were homogenized with the addition of 120 mM sodium chloride, 5 mM potassium chloride, 2 mM calcium chloride, 1 mM magnesium chloride, and 0.01% ascorbic acid contained in 50 mM tris-phosphate buffer (pH 7.7). The homogenate was centrifuged at […] and 35000×g for 10 minutes. The same buffer was added to the resultant precipitate,then this was homogenized again and was similarly centrifuged to obtain the precipitate. The same buffer was added to this precipitate which was then again homogenized to prepare the dopamine D2 receptor.
For the binding experiment, use was made of 1.0 nM of [3H]3,5-dichloro-N-[(1-ethyl-2-pyrrolidinyl)methyl]-6-hydroxy-o-anisamide (Raclopride), various concentrations of test samples were added to a system of 0.34 mg/ml of protein or a total of 0.25 ml, incubation was performed at 25° C. for 60 minutes, then the radioactivity was measured in the same way as in the Evaluation Example 1 to find the degree of binding.
The 50% inhibiting concentration of binding affinity (IC50) was calculated from the degrees of binding at various concentrations of the added samples. […] The IC50 values of typical compounds are shown together with the IC50 values for the serotonin receptor.

Another data set deals with Wistar male rats. Kind of data set: Ischemic brain tissue damage, transient right middle cerebral artery occlusion (MCAO) model. The note with it: Rattus norvegicus, sc, 240 h; s.c., immediately after occlusion; 60 minutes occlusion; brain tissue damage 10 days after restart of blood flow (number of benzodiazepine bindings); read-out: Minimum effective dosage. It counts as in vivo. As to the method:
The evaluation of the efficacy on ischemic brain damage of the compounds of the general formulae (I), (II), and (III) was performed using the transient right middle cerebral artery occlusion (MCAO) model of Koizumi et al. (Jap. J. Stroke, vol. 8, pp. 1 to 8, 1986). That is, 10 to 11 week old Wistar male rats were used and the right middle cerebral artery was temporarily obstructed for 60 minutes. 10 days after the restart of the blood flow, the brains were excised and the degree of brain tissue damage of the cerebral cortex and corpus striatum of the obstructed side were evaluated by the damage marker of the number of benzodiazepine bindings. The tested drugs were dissolved in physiological saline and administered subcutaneously at the backs of the rats immediately after the right middle cerebral artery occlusion. As a control, physiological saline of […] body weight was similarly administered.

The nature of data set [2]: Acute toxicity after oral administration. The following applies: rat, in vivo; 24 hours after oral administration, six-week old male rats. The text has this: This value is over 50 times or more of the expected clinical dosage and therefore, it is judged that the safety of the compounds according to the present invention is high.
Setting [3] is: 0.4 nM [3H]8-OH-DPAT, rat hippocampus preparation, 25° C., 30 minutes, read-out: IC50 (5-HT1A).

SMILES strings stand for the structures. Where two headings read alike, the source gives them in different places.

T2 sequence (P61169 whole entry): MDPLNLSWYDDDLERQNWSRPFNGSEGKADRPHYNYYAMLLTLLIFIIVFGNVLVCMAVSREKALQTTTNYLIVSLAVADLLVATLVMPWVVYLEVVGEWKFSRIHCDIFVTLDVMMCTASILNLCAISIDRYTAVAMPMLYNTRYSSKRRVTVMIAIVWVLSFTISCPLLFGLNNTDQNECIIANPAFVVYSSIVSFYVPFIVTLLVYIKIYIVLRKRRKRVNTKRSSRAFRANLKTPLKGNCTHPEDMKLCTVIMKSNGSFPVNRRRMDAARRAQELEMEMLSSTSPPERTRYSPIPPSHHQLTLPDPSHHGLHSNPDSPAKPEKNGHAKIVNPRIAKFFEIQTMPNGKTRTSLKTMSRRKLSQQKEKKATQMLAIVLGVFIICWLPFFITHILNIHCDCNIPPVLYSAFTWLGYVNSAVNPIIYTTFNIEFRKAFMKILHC

By melting point is commonly meant the temperature of the solid-liquid transition. Take `O=C1c2ccccc2OC=CN1CCCCN1CCN(c2ccccn2)CC1` [Example 32, 4,5-dihydro-4-(4-(4-(2-pyridyl)piperazin-1-yl)butyl)-1,4-benzoxazepin-5-one]: the melting point was in the range of 150 to 151 °C. Besides, the minimal effective dose with male Wistar rats was found to be 30 mg/kg.

For the molecule `COc1ccc2c(c1)OC=CN(CCCCN1CCN(c3ncccn3)CC1)C2=O` [Example 33, 4,5-dihydro-8-methoxy-4-(4-(4-(2-pyrimidinyl)piperazin-1-yl)butyl)-1,4-benzoxazepin-5-one], the melting point fell in the range of 156 to 158 °C. Moreover, the minimal effective dose in the data set on male Wistar rats amounted to 10 mg/kg.

Consider `CC1=COc2ccccc2C(=O)N1CCCCN1CCN(c2ncccn2)CC1` [Example 34, 4,5-dihydro-3-methyl-4-(4-(4-(2-pyrimidinyl)piperazin-1-yl)butyl)-1,4-benzoxazepin-5-one], for which the melting point fell in the range of 141 to 142 °C. Moreover, the minimal effective dose with male Wistar rats is 30 mg/kg.

In general, IC50 refers to the concentration that gives 50% inhibition. `CC1=COc2ccccc2C(=O)N1CCCCN1CCN(c2cccc(Cl)n2)CC1` [Example 35, 4-(4-(4-(2-chloropyridin-6-yl)piperazin-1-yl)butyl)-4,5-dihydro-3-methyl-1,4-benzoxazepin-5-one] registered a melting point of 166 to 168 °C. Further, the IC50 in data set [1] (setting [3]) was 1.5 nM. The D2/5-HT1A in data set [1] stood at 196. Moreover, at dopamine D2 receptor, the IC50 came out at 294 nM.

The molecule `CC1=COc2cc(C)ccc2C(=O)N1CCCCN1CCN(c2cccc(C)c2)CC1` [Example 37] yielded a melting point of 113 to 115 °C.

`COc1ccccc1N1CCN(CCCCN2C(=O)c3ccc(C)cc3OC=C2C)CC1` [Example 38, 4,5-dihydro-3,8-dimethyl-4-(4-(4-(2-methoxyphenyl)piperazin-1-yl)butyl)-1,4-benzoxazepin-5-one] came in with a melting point of 88 to 90 °C.

With `CC1=COc2ccc(C)cc2C(=O)N1CCCCN1CCN(c2ncc(F)c(N)n2)CC1` [Example 40, 4-(4-(4-(4-amino-5-fluoropyrimidin-2-yl)piperazin-1-yl)butyl)-4,5-dihydro-3,7-dimethyl-1,4-benzoxazepin-5-one], the melting point was in the range of 243 to 245 °C.

Consider `O=C1c2ccccc2OC=C(Cl)N1CCCCN1CCN(c2ccccn2)CC1` [Example 46, 3-chloro-4,5-dihydro-4-(4-(4-(2-pyridyl)piperazin-1-yl)butyl)-1,4-benzoxazepin-5-one], for which the figures for the IC50 (in data set [1] (setting [3]); on dopamine D2 receptor) were 0.77 nM and 51 nM, respectively. Also, in data set [1], the D2/5-HT1A came to 67. The minimal effective dose in the data set on male Wistar rats is 10 mg/kg; with Wistar male rats, 0.3 mg/kg.

`O=C1c2ccc(Cl)cc2OC=C(Cl)N1CCCCN1CCN(c2ccccn2)CC1` [Example 48, 3,8-dichloro-4,5-dihydro-4-(4-(4-(2-pyridyl)piperazin-1-yl)butyl)-1,4-benzoxazepin-5-one]: the IC50 in data set [1] (setting [3]) was 1.2 nM; on dopamine D2 receptor, 233 nM. In addition, the D2/5-HT1A in data set [1] is on record as 194. The figures for the minimal effective dose in the data set on male Wistar rats and in the data set on Wistar male rats were 30 mg/kg and 1 mg/kg, respectively.

By LD50 is commonly meant the dose expected to kill half of the subjects tested. A higher LD50 goes with lower toxicity. Regarding `O=C1c2ccccc2OC=C(Cl)N1CCCCN1CC=C(c2ncccn2)CC1` [Example 56, 3-chloro-4,5-dihydro-4-(4-(4-(2-pyrimidinyl)-1,2,5,6-tetrahydropyridin-1-yl)butyl)-1,4-benzoxazepin-5-one], in data set [1], the IC50 turned out to be 1.38 nM and the D2/5-HT1A was 358. The LD50 at 24 h in data set [2] was ≥ 100 mg/kg. For the same molecule, the IC50 on dopamine D2 receptor is 494 nM. Also, the minimal effective dose in the data set on Wistar male rats was determined as 1 mg/kg.

On to `O=C1c2ccccc2OC=C(Cl)N1CCCCN1CC=C(c2ccccn2)CC1` [Example 82], for which the IC50 in data set [1] (setting [3]) turned out to be 0.47 nM; on dopamine D2 receptor, 128 nM. Besides, in data set [1], the D2/5-HT1A is 84. The minimal effective dose worked out at 30 mg/kg in the data set with male Wistar rats and 0.3 mg/kg in the data set on Wistar male rats.
